# Earlier results in PMC12308805, “Ultrahigh-Throughput Virtual Screening Strategies against PPI Targets: A Case Study of STAT Inhibitors” (Journal of Chemical Information and Modeling, 2025).
# Square brackets hold non-standard residues; d marks the D form. Peptide text beside a SMILES is read from it. d(pY) = N[C@H](Cc1ccc(OP(=O)(O)O)cc1)C(=O)O
# Tested on: STAT3
# Conditions: cited from earlier work
row,Structure (SMILES),Type (known STAT3 active)
1,CC(=O)N[C@H](Cc1ccc(OP(=O)(O)O)cc1)C(=O)N[C@H](CC(C)C)C(=O)N1CCC[C@H]1C(=O)N[C@@H](CCC(N)=O)C(=O)N[C@@H](C)C(=O)N[C@H](C(N)=O)C(C)C [CHEMBL156407] (Ac-[d(pY)][dL]PQAV-NH2),Active
2,CC(=O)N[C@@H](Cc1ccc(OP(=O)(O)O)cc1)C(=O)N[C@H]1CCc2cccc3c2N(C1=O)[C@H](C(=O)N[C@@H](CCC(N)=O)C(=O)N[C@H](C(N)=O)[C@@H](C)O)C3 [CHEMBL503765],Active

# Same assay, conditions: sheet 6QHD_actives_decoys, retrospective screening set for STAT3 SH2 domain (PDB 6QHD); decoys are presumed inactives, not tested; ref DUD-E; cited from earlier work
row,Structure (SMILES),Type
1,CCOC(=O)c1ccc(NC(=O)CSc2nnc(CNC(=O)c3ccco3)n2-c2ccc(OCC)cc2)cc1 [Decoy789],Inactive (Decoy)
2,C=CCO[C@@H]1[C@H]2OC(C)(C)O[C@H]2O[C@@H]1[C@H](O)Cn1c(=O)n(C[C@@H](O)[C@H]2O[C@@H]3OC(C)(C)O[C@@H]3[C@H]2OCC=C)c2cc(C)ccc21 [Decoy929],Inactive (Decoy)
3,CCOc1cccc(/C=N/NC(=O)CSc2nnc(-c3cc(OC)c(OC)c(OC)c3)n2-c2ccccc2)c1O [Decoy798],Inactive (Decoy)
4,Cc1ccc(OCC(=O)NNC(=O)CCCCC(=O)NNC(=O)COc2ccc(C)cc2Br)c(Br)c1 [Decoy784],Inactive (Decoy)
5,CO[C@H]1C[C@H](O[C@H]2CC[C@]3(C=O)[C@H]4CC[C@]5(C)[C@@H](C6=CC(=O)OC6)CC[C@]5(O)[C@@H]4CC[C@]3(O)C2)O[C@H](C)[C@H]1O[C@H]1O[C@H](CO)[C@@H](O)[C@H](O)[C@H]1O [Decoy943],Inactive (Decoy)
6,CCOC(=O)[C@@H]1[C@@H](C(=O)OCC)[C@H]2/C(=N\NS(=O)(=O)c3ccc(C)cc3)[C@H]3[C@@H](C(=O)OCC)[C@@H](C(=O)OCC)[C@@H]3/C(=N\NS(=O)(=O)c3ccc(C)cc3)[C@@H]12 [Decoy764],Inactive (Decoy)
7,CCOC(=O)c1ccc(NC(=O)CCN2C(=O)/C(=C3\SC(=S)N(CCC(=O)Nc4ccc(C(=O)OCC)cc4)C3=O)SC2=S)cc1 [Decoy869],Inactive (Decoy)
8,CCCOc1cccc(C(=O)NC(=S)Nc2ccc(S(=O)(=O)Nc3cc(OC)ncn3)cc2)c1 [Decoy947],Inactive (Decoy)
9,COc1cc([C@H]2c3cc(OC)c(O[C@H]4O[C@@H](CO)[C@@H](O)[C@@H](O)[C@H]4O)c(OC)c3C[C@H](CO)[C@@H]2CO)cc(OC)c1O [Decoy824],Inactive (Decoy)
10,CC(C)(CC[C@@H](O)[C@@](C)(O)[C@H]1CC[C@@]2(O)C3=CC(=O)[C@H]4C[C@@H](O)[C@@H](O)C[C@]4(C)[C@@H]3CC[C@]12C)O[C@H]1O[C@@H](CO)[C@@H](O)[C@@H](O)[C@H]1O [Decoy905],Inactive (Decoy)
11,CCN(CC)c1ccc(NC(=S)NC(=O)c2ccco2)cc1S(=O)(=O)Nc1ccc(OC)cc1 [Decoy769],Inactive (Decoy)
12,Cc1cc(C)cc(NC(=O)COc2ccc(S(=O)(=O)Nc3ccc(C(=O)O)cc3)cc2[N+](=O)[O-])c1 [Decoy932],Inactive (Decoy)
13,CCc1c(C)nc(-n2nc(-c3ccco3)cc2NC(=O)c2cc(OC)c(OC)cc2[N+](=O)[O-])nc1O [Decoy834],Inactive (Decoy)
14,CCN(CC)S(=O)(=O)c1ccc(NC(=O)CSc2n[nH]c(N/N=C/c3ccccc3F)n2)cc1 [Decoy890],Inactive (Decoy)
15,Cn1c(CCCC(=O)O)nc2cc(N(CCO)CCOC(=O)CCCc3nc4cc(N(CCO)CCO)ccc4n3C)ccc21 [Decoy826],Inactive (Decoy)
16,COc1cc([C@H]2OC[C@H]3[C@@H]2CO[C@H]3c2ccc(O[C@@H]3O[C@H](CO[C@@H]4O[C@@H](C)[C@H](O)[C@@H](O)[C@H]4O)[C@@H](O)[C@H](O)[C@H]3O)c(OC)c2)ccc1O [Decoy911],Inactive (Decoy)
17,CC(=O)Nc1ccc(S(=O)(=O)Nc2nnc(CCNS(=O)(=O)c3ccc(C)cc3)s2)cc1 [Decoy958],Inactive (Decoy)

# Same assay, conditions: sheet 6QHD_actives_decoys; known STAT3 actives of the retrospective screening set; ref ChEMBL / literature; cited from earlier work
row,Structure (SMILES),Type (known STAT3 active)
1,CC(=O)N[C@@H](Cc1ccc(OCC(=O)O)cc1)C(=O)N[C@@H](CC(C)C)C(=O)N1CCC[C@H]1C(=O)N[C@@H](CCC(N)=O)C(=O)N[C@H](C(=O)N[C@H](C(=O)O)C(C)C)[C@@H](C)O [CHEMBL414897],Active
2,CC(C)C[C@H](NC(=O)/C=C/c1ccc(OP(=O)(O)O)cc1)C(=O)N1CCC[C@H]1C(=O)N[C@@H](CCC(N)=O)COC(N)=O [CHEMBL573643],Active

# Same assay, conditions: sheet 6QHD_actives_decoys; retrospective screening set for STAT3 SH2 domain (PDB 6QHD); […]; ref DUD-E; cited from earlier work
row,Structure (SMILES),Type
1,COc1ccccc1NS(=O)(=O)c1ccc(OC)c(NS(=O)(=O)c2ccc(C(=O)O)cc2)c1 [Decoy605],Inactive (Decoy)
2,O=C(NCCNc1ccc(C(F)(F)F)cc1[N+](=O)[O-])c1ccc(CSc2ncn[nH]2)cc1 [Decoy448],Inactive (Decoy)
3,CSc1cccc(NC(=O)C[C@@H]2SC(N[C@H](c3cccs3)c3c(O)[nH]c(=O)[nH]c3=O)=NC2=O)c1 [Decoy681],Inactive (Decoy)
4,CCOc1ccc(NS(=O)(=O)c2ccc3c(c2)CC(=O)N3)cc1S(=O)(=O)N1CCCC1 [Decoy537],Inactive (Decoy)
5,Cc1nccc(NS(=O)(=O)c2ccc(NC(=O)c3cccc(C(=O)Nc4ccc(S(=O)(=O)Nc5ccnc(C)n5)cc4)c3)cc2)n1 [Decoy361],Inactive (Decoy)
6,COc1ccc(NS(=O)(=O)c2ccc(OC)c(NS(=O)(=O)c3ccc(C#N)cc3)c2)cc1 [Decoy542],Inactive (Decoy)

# Same assay, conditions: sheet 6QHD_actives_decoys; retrospective screening set for STAT3 SH2 domain (PDB 6QHD); decoys generated with DUD-E and presumed inactive, not tested; ref DUD-E; cited from earlier work
row,Structure (SMILES),Type
1,CC(C)(CO[P@](=O)(O)O[P@](=O)(O)OC[C@H]1O[C@@H](n2cnc3c(N)ncnc32)[C@@H](O)[C@H]1O)[C@H](O)C(=O)NCCC(=O)NCCS [Decoy640],Inactive (Decoy)
2,CCCCn1c(N)c(N(CCOC)C(=O)CSc2nc3ccccc3s2)c(=O)[nH]c1=O [Decoy723],Inactive (Decoy)
3,C/C=C(/C[C@@H](O)N(C=O)Cc1cnc(C)nc1N)SS/C(=C/C)C[C@@H](O)N(C=O)Cc1cnc(C)nc1N [Decoy342],Inactive (Decoy)
4,CC(=O)N[C@@H]1[C@@H](O)[C@H](O[C@@H]2O[C@H](CO)[C@H](O)[C@H](O[C@@]3(C(=O)O)C[C@H](O)[C@H](NC(C)=O)[C@H]([C@H](O)[C@H](O)CO)O3)[C@H]2O)[C@@H](CO)O[C@H]1O [Decoy637],Inactive (Decoy)
5,CCN(CC)c1ccc(/C=N/NC(=O)CSc2nnc(-c3cc(OC)c(OC)c(OC)c3)n2-c2ccccc2)c(O)c1 [Decoy703],Inactive (Decoy)
6,CCOCCOc1ccccc1C(=O)N/C(S)=N\NC(=O)COc1ccc([N+](=O)[O-])cc1 [Decoy631],Inactive (Decoy)
7,CC[C@H]1OC(=O)[C@H](C)[C@@H](O[C@@H]2C[C@@](C)(OC)[C@H](O)[C@H](C)O2)[C@H](C)[C@H](O[C@H]2O[C@@H](C)C[C@@H](N(C)C)[C@H]2O)[C@](C)(O)C[C@@H](C)/C(=N\OCOCCOC)[C@H](C)[C@@H](O)[C@]1(C)O [Decoy581],Inactive (Decoy)
8,CC(=O)N[C@@H]1[C@H]([C@H](O)[C@H](O)CO)O[C@@](O[C@H]2[C@@H](O)[C@@H](O[C@@H]([C@@H](O[C@@H]3O[C@@H](C)[C@H](O)[C@H](O)[C@@H]3O)[C@H](O)C=O)[C@H](O)CO)O[C@@H](CO)[C@H]2O)(C(=O)O)C[C@@H]1O [Decoy382],Inactive (Decoy)
9,COc1cc(-c2c(-c3cc(Br)c(O)c(OC)c3)oc(/C=N/NC(=O)C[N+](C)(C)C)c2[N+](=O)[O-])cc(Br)c1[O-] [Decoy556],Inactive (Decoy)
10,Nc1nc(OCc2cc(Br)cs2)c2ncn(CCCCCCCCO[C@@H]3O[C@@H](CO)[C@@H](O)[C@@H](O)[C@H]3O)c2n1 [Decoy330],Inactive (Decoy)
11,CCCN(C(=O)c1cccc([N+](=O)[O-])c1)[C@H](C(=O)NCS(=O)(=O)c1ccc(C)cc1)c1ccc(O)cc1 [Decoy565],Inactive (Decoy)
12,COc1cc([C@@H]2OC[C@@]3(O)[C@@H](c4ccc(O[C@@H]5O[C@H](CO)[C@@H](O)[C@H](O)[C@H]5O)c(OC)c4)OC[C@@]23O)ccc1O [Decoy396],Inactive (Decoy)
13,O=S(=O)(O)c1cc(S(=O)(=O)O)c2c(/N=N/c3ccc([C@H](c4ccc(/N=N/c5ccc(O)cc5)cc4)C4CCCCC4)cc3)c(O)ccc2c1 [Decoy555],Inactive (Decoy)
14,CCOC(=O)c1ccc(/N=C2\S[C@H](CC(=O)Nc3ccc(C(=O)OCC)cc3)C(=O)N2CCc2ccc(Cl)cc2)cc1 [Decoy553],Inactive (Decoy)
15,COc1ccc(C[C@@H]2COC(=O)[C@@H]2Cc2ccc(O[C@@H]3O[C@H](CO)[C@@H](O)[C@H](O)[C@H]3O)c(OC)c2)cc1OC [Decoy606],Inactive (Decoy)
16,COc1cc(/C=N/NC(=O)CCCCC(=O)N/N=C/c2cc(Br)c(O)c(OC)c2)cc(Br)c1O [Decoy433],Inactive (Decoy)
17,COc1ccc(C(=O)N/C(=C\c2cn(S(=O)(=O)N(C)C)c3ccccc23)C(=O)NCCN2CCOCC2)cc1OC [Decoy375],Inactive (Decoy)
18,CCC/C=C/[C@@H](C(=O)NCS(=O)(=O)c1ccc(C)cc1)N(CCC)C(=O)c1cc([N+](=O)[O-])ccc1O [Decoy570],Inactive (Decoy)
19,C[C@@H]1O[C@@H](O[C@H]2[C@H](O)C[C@H](O[C@H]3[C@H](O)C[C@H](O[C@H]4CC[C@@]5(C)[C@H](CC[C@@H]6[C@@H]5CC[C@]5(C)[C@@H](C7=CC(=O)OC7)CC[C@]65O)C4)O[C@@H]3C)O[C@@H]2C)C[C@@H](O)[C@@H]1O [Decoy469],Inactive (Decoy)
20,C=CCn1c(Cc2csc(N)n2)nnc1SCC(=O)Nc1ccc(S(=O)(=O)Nc2cc(C)on2)cc1 [Decoy336],Inactive (Decoy)
21,Cc1cc(NS(=O)(=O)c2ccc(NC(=O)CCC(=O)Nc3ccc(S(=O)(=O)Nc4cc(C)on4)cc3)cc2)no1 [Decoy702],Inactive (Decoy)
22,CCOc1cc(N2CCOCC2)c(OCC)cc1NC(=O)c1oc2ccccc2c1CSc1ncn[nH]1 [Decoy600],Inactive (Decoy)
23,COc1cc(NC(=O)CSc2n[nH]c(N/N=C/c3cc([N+](=O)[O-])ccc3O)n2)ccc1Cl [Decoy500],Inactive (Decoy)
24,COc1cc(/C=N/Nc2nc(SCC(=O)Nc3cc(F)ccc3C)n[nH]2)cc(OC)c1OC [Decoy676],Inactive (Decoy)
25,COc1cc(/N=N/c2ccc(N)cc2)c(C)cc1/N=N/c1c(S(=O)(=O)O)cc2ccc(N)cc2c1O [Decoy635],Inactive (Decoy)
